Like-named read-outs stand apart in the source and are kept apart here.
Key:
[1] = target: T1, insulin-insulin interaction (Homo sapiens, UniProt P01308); experiment: SPR: effect of substances mixed with insulin in solution on insulin-insulin interaction; format: binding; conditions: for effect of additive on insulin-insulin interaction: pH 5, insulin 10 μM, zinc sulfate in molar ratios higher than insulin, EDTA up to 10 μM
T1 construct: 28; purchased Novo Nordisk A/S, Denmark Actrapid
Method: BiacorA Biacore 3000 instrument was employed for the interaction measurements based on surface plasmon resonance (SPR). Interaction analyses were performed at 25° C. in 10 mM Na-citrate buffers pH 3, 4, 5, 10 mM bis-Tris, pH 6, and 10 mM Tris/HC1, pH 7, all buffers containing 100 mM NaCl and 0.005% 5P20. Flow rates for the binding analyses were kept at 20 μl/min. […] Insulin was immobilized on a carboxymethyl-modified dextran surface via both amine and carboxyl coupling, using the surface thiol method, in two different lanes of Biacore CM5 chips. The immobilization was carried out according to the procedure described in the kits. In brief, the sensor chip surface was first washed with 4 M LiCl/HBS for 1 min and then with 0.2% SP20/HBS for 1 mM. The surface was activated according to standard procedure with an injection of 0.05 M NHS/0.2 M EDC for 7 min. Desalted insulin solution was diluted in acetate buffer, pH 4.5, to 20 μg/ml and injected at 50/min for different time intervals. For surface thiol coupling, the surface was first activated with 0.05 M NHS/0.2 M EDC for 2 min followed by a 3 min injection of 40 mM cystamine dihydrochloride and then 0.1 M DTE for 3 min. […] The mixture was incubated for 10 mM at room temperature and excess PDEA was removed on a NAP-10 column. The purified PDEA ligand was injected for 7 min, soon after DTE, and finally the surface was washed with 20 mM PDEA in 0.1 M sodium acetate, 1.0 M NaCl. For quick regeneration of the surface, 2 M guanidine-HC1, pH 6.4, was employed. For controls, lanes activated and deactivated according to the standard procedures were used. For subtraction of noise from the data, running buffer only was injected to all surfaces. For the C-terminal attachment, surface-thiol coupling to 4000-5000 RU was used, and for N-terminal attachment, amine coupling to 800-1000 RU as achieved on different CM5 chips. However for kinetic analysis immobilization was carried out in a controlled condition and around 1000 RU for C-terminal and 400 RU for N-terminal coupling were immobilized. A surface activated with EDC/NHS and deactivated with ethanolamine was used as a control surface for N-terminally immobilized insulin and a surface treated with EDC/NHS, cysteine/DTE and finally deactivated with PDEA-NaCl was used as a control for C-terminally immobilized insulin. Biacore data were analyzed with Bia-evaluation software 4.1. All calculations based on numerical approaches, including simulations and global curve fitting for estimates of active concentrations, were performed with IGOR Pro (version 4.01.A, WaveMetrics, Inc.). However, C-peptide, mixed with insulin in solution, influences the insulin-insulin monomer interactions measured above. […] This elevated interaction can be seen at different pH from 3-7. The phenomenon of more pronounced interaction was clearer when concentrations higher than 0.5 μM were used then below 0.5 μM. […] All concentrations were run in triplicates and in random order.

[2] = target: T2, immobilized insulin (Homo sapiens, UniProt P01308); experiment: SPR (Biacore 3000) insulin-insulin interaction, free insulin over chip-immobilized insulin; format: binding; conditions: for Kd: C-terminally immobilized insulin, global fit, analyte with two binding sites competing for one site, insulin 0.25-10 μM
T2 construct: 28; purchased Novo Nordisk A/S, Denmark Actrapid
T2 sequence (P01308 25-54 limits assumed): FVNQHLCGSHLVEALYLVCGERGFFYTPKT
T2 sequence (P01308 90-110 limits assumed): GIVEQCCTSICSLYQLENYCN
Method: BiacorA Biacore 3000 instrument was employed for the interaction measurements based on surface plasmon resonance (SPR). Interaction analyses were performed at 25° C. in 10 mM Na-citrate buffers pH 3, 4, 5, 10 mM bis-Tris, pH 6, and 10 mM Tris/HC1, pH 7, all buffers containing 100 mM NaCl and 0.005% 5P20. Flow rates for the binding analyses were kept at 20 μl/min. Insulin was desalted and buffer was exchanged on NAP 10 columns from Amersham Biosciences.
Working insulin solution was prepared after removing the excess of zinc sulfate, meta-cresol and other salts from the original solution by passing through a NAP 10 column in the desired buffer for experiments. The desalted insulin was diluted to 1 mM, aliquoted and stored at −20° C.
Insulin was immobilized on a carboxymethyl-modified dextran surface via both amine and carboxyl coupling, using the surface thiol method, in two different lanes of Biacore CM5 chips. The immobilization was carried out according to the procedure described in the kits. In brief, the sensor chip surface was first washed with 4 M LiCl/HBS for 1 min and then with 0.2% SP20/HBS for 1 mM. The surface was activated according to standard procedure with an injection of 0.05 M NHS/0.2 M EDC for 7 min. Desalted insulin solution was diluted in acetate buffer, pH 4.5, to 20 μg/ml and injected at 50/min for different time intervals. For surface thiol coupling, the surface was first activated with 0.05 M NHS/0.2 M EDC for 2 min followed by a 3 min injection of 40 mM cystamine dihydrochloride and then 0.1 M DTE for 3 min. At the same time, 2-(2-pyridinyldithio)ethaneamine hydrochloride (PDEA) insulin was prepared by dissolving 0.5 mg insulin in 0.5 ml 0.1 M MES, adding to it 0.25 ml of (15 mg/ml) PDEA in 0.1 M MES, pH 5, and 25 μl 0.4M EDC. The mixture was incubated for 10 mM at room temperature and excess PDEA was removed on a NAP-10 column. The purified PDEA ligand was injected for 7 min, soon after DTE, and finally the surface was washed with 20 mM PDEA in 0.1 M sodium acetate, 1.0 M NaCl. For quick regeneration of the surface, 2 M guanidine-HC1, pH 6.4, was employed. For controls, lanes activated and deactivated according to the standard procedures were used. For subtraction of noise from the data, running buffer only was injected to all surfaces.
For the C-terminal attachment, surface-thiol coupling to 4000-5000 RU was used, and for N-terminal attachment, amine coupling to 800-1000 RU as achieved on different CM5 chips. However for kinetic analysis immobilization was carried out in a controlled condition and around 1000 RU for C-terminal and 400 RU for N-terminal coupling were immobilized. […]
Biacore data were analyzed with Bia-evaluation software 4.1. […]

[3] = target: T3, insulin (Homo sapiens, UniProt P01308); experiment: Non-denaturing nano-electrospray mass spectrometry of insulin, C-peptide and control peptides; format: binding; conditions: ESI-MS
T3 construct: 28; purchased Novo Nordisk A/S, Denmark Actrapid
T3 sequence (P01308 25-54 limits assumed): as the sequence (P01308 25-54 limits assumed) above
Method: For mass spectrometric analysis, preparation of concentrated insulin stock solution was performed essentially as described [Nettleton et al, 2000, Biophys J. 79:1053]. Briefly, insulin (NovoNordisk A/S, Denmark) was concentrated to 100 μM using ultrafiltration spin-filters (NanoSep, PallGellman, MWCO: 3000 Da). This stock solution was then buffer-exchanged to water, pH 5 (HCl), by extended dialysis. For all experiments, insulin and C-peptide stock solutions were diluted in water-HC1 (pH 5) to reach the indicated concentrations. C-peptide was prepared as a 746 μM stock solution in water and all control peptides were prepared similarly.
Mass spectrometry data were recorded with a QTOF Ultima API instrument (Waters, Milford, Mass.) operated in the positive ion mode. Sample solutions were analyzed by nanoelectrospray from conductive borosilicate glass capillaries (Proxeon Biosystems A/S, Odense, Denmark). Instrument settings were not modified for the observation of non-covalent complexes, other than that the “cone” and the “RF-lens” settings were set to 90 and 50 V, respectively.
The binding between insulin and C-peptide in the gas-phase was studied by non-denaturing electrospray mass spectrometry using a method analogous to that of Nettleton et al [Nettleton et al, 2000, Biophys J. 79:1053].

[4] = s.c. injection of C-peptide plus soluble insulin (CI-day) vs insulin plus diluent (I-day), glucose clamp, Type 1 diabetic patients; format: in vivo, human
Method: Apart from insulin they had no other medication. All patients received injections of soluble insulin before meals and intermediate-acting insulin at bedtime. Six patients had simplex retinopathy and two of these (nos. 4 and 8) also had microalbuminuaria. All subjects were informed of the purpose, nature and possible risks before giving their consent to participate in the study, which was approved by the local Ethics Committee. The experiments were carried out on two days separated by at least one week. The patients were admitted to the hospital at 8 p.m. in the evening before the study day. They received their last dose of insulin at 4-6 p.m. In order to clear the subcutaneous depots of insulin no intermediate-acting insulin was given at bedtime. Instead, an intravenous infusion of insulin was started at the time of admission. […] On the study day the investigation started at 7.30 a.m. after an overnight fast. A short teflon catheter was inserted into an antecubital vein for blood sampling. […] The injections were given with an automatic injection device (which allowed standardization of speed and depth) approximately 100 mm lateral to the umbilicus into the middle of the subcutaneous tissue, the depth of which was predetermined with ultrasound. After the injections plasma glucose was allowed to decrease to 3.5 mmol/l, whereafter it was maintained at 3.5-5 mmol/l using a variable glucose infusion (DeFronzo R, Tobin J, Andres R, American Journal of Physiology 237:[…]-[…], 1979) The patients were followed for 6 hours. Blood samples for the determination of plasma glucose, free insulin, C-peptide, FFA and glucagon were taken at timed intervals. […] Plasma free insulin was determined by radioimmunoassay after immediate polyethylene glycol precipitation (Arnquist H, Olsson P, von Schenk H, Clinical Chemistry 33:93-96, 1987). C-peptide (Heding L, Diabetologia 11:541-548, 1975) and glucagon were also analyzed by radioimmunoassay using a commercially available kit (MILAB, Malmö, Sweden). Plasma […], Greenberg […], Goetz F, Metabolism 35:122-125, 1986) was determined by a fluorometric method. Standard statistical methods including Wilcoxon's nonparametric test, Student's paired t-test and linear regression analyses were performed when applicable. Results are presented as mean values±SEM. […] The areas under the plasma insulin, and free fatty acid concentration curves were computed by trapezoidal integration.

[5] = in vivo; cited from earlier work

T1 sequence (P01308 25-54 limits assumed): as above

Molecule: O=C(O)CN(CCN(CC(=O)O)CC(=O)O)CC(=O)O [EDTA]
- effect of additive on insulin-insulin interaction [1]: promoted insulin-insulin interaction

Molecule: O=S(=O)([O-])[O-].[Zn+2] [zinc sulfate]
- effect of additive on insulin-insulin interaction [1]: diminished insulin interaction

Molecule: C-terminal pentapeptide: pentapeptide EGSLQ (SEQ ID NO. 2), residues 27-31 of native human C-peptide (Pentapeptide of C-peptide)
- enhancement of insulin-insulin binding relative to native C-peptide ([1]; 1:1 molar ratio (FIG. 15)): as equally effective as the native C-peptide
- stimulation of SPR-measurable binding in mixture with insulin in the flow-through solution ([1]; Example 10): stimulated SPR-measurable binding

Molecule: Human insulin
- Kd ([2]; read-out: dissociation constant KD1 (slow off rate)): 2.71 µM
- Kd ([2]; read-out: dissociation constant KD2 (rapid off rate)): 4.65 µM
- lowest insulin solution concentration at which binding is noticeable ([2]; pH 5): 0.05 µM
- pH of highest (maximum) insulin-insulin binding interaction ([2]; pH range 3-7): 5
- insulin concentration at which dimerization is detectable [3]: 3 µM
- insulin concentration at which higher polymers up to hexamers are detectable [3]: 30 µM

Molecule: I: soluble insulin (Humulin; 10U) and C-peptide diluent, injected s.c.
- AUC for plasma FFA concentration 0-360 min ([4]; 0-360 min): 129 ± 17 mmol·min/L
- plasma FFA 10 min after the injections ([4]; 30 min after cessation of i.v. insulin infusion): 0.80 ± 0.11 mmol/L
- AUC for plasma FFA concentration 0-180 min ([4]; after correction for the plasma free insulin area, p<0.01): 55.6 ± 5.1 mmol·min/L
- area under the plasma IRI curve (0-360 min) ([4]; human, in vivo): 5847±430 mU/l×min
- plasma glucose at the beginning of the glucose infusions ([4]; human, in vivo): 3.5 ± 0.05 mmol/L
- plasma C-peptide at 360 min ([4]; mean±SEM): 0.10 ± 0.02 nmol/L
- patients requiring intravenous infusion of glucose to avoid hypoglycemia ([4]; nine patients): 7 of 9
- time of peak plasma insulin (IRI) ([4]; s.c. insulin 10 U): 88 ± 11 min
- duration of glucose infusion ([4]; variable glucose infusion to avoid hypoglycemia): 124 ± 28 min

Molecule: Insulin Glulisine
- action / pharmacokinetic profile compared with other rapid acting analogues [5]: pharmacokinetic profile similar to Lispro and Aspart

Molecule: Lispro
- effective duration [5]: 4 to 6 h
- onset of action [5]: 5 to 15 min
- peak action [5]: 0.5 to 1.5 h

Molecule: regular insulin: regular human insulin
- effective duration [5]: 8 to 10 h
- onset of action [5]: 30 to 60 min
- peak action [5]: 2 to 3 h

Molecule: zinc insulin (Lente): human insulin preparation, zinc insulin, with extended duration
- effective duration [5]: 12 to 20 h
- onset of action [5]: 120 to 240 min
- peak action [5]: 4 to 10 h

— patent US20100216693A1, “COMPOSITIONS AND METHODS OF TREATING DIABETES” (priority 2005, published 2010)
